# Measured values published in publication PMC12663261 (Nature Communications, 2025).
# Key:
# [1] = target: T1, hcis-PT (DHDDS / NgBR complex) (Homo sapiens, UniProt Q86SQ9+Q96E22); test: HDX-MS, ligand-bound versus apo; assay type: binding; conditions: 6-molar excess ligand, 5 mM MgCl2, pD 7.5, 4 °C; active site
# T1 sequence (Q86SQ9 1-333): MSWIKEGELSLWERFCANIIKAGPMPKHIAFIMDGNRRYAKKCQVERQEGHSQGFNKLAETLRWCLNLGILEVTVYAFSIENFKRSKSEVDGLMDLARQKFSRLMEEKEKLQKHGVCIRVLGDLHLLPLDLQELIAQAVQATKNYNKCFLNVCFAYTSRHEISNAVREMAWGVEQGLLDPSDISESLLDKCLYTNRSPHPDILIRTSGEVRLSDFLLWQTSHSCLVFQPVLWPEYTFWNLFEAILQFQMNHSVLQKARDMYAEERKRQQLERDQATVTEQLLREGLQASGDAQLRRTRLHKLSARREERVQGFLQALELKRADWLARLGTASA
# T1 sequence (Q96E22 73-293): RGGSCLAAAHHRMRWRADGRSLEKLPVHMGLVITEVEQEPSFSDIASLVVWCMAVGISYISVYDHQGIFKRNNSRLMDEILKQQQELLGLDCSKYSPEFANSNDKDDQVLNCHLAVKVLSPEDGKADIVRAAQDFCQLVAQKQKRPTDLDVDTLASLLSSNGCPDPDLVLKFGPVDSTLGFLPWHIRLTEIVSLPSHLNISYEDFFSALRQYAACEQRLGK
# [2] = target: T1, hcis-PT (DHDDS / NgBR complex); test: fluorescence increase upon chain elongation; assay type: biochemical; conditions: 5 uM with 100 uM IPP, 0.2 uM enzyme, 0.5 mM MgCl2, pH 7.5
Structure (SMILES),"HDX-MS, ligand-bound versus apo [1]","fluorescence increase upon chain elongation (Ex 352 nm, Em 425 nm) [2]"
CC(C)=CCC/C(C)=C/CC/C(C)=C/COP(=O)(O)OP(=O)(O)O [FPP],binding of either FPP or GGPP resulted in decreased HDX throughout the active site,
CC(C)=CCC/C(C)=C/CC/C(C)=C/CC/C(C)=C/COP(=O)(O)OP(=O)(O)O [GGPP],binding of either FPP or GGPP resulted in decreased HDX throughout the active site,
"CNc1ccccc1C(=O)OC/C(C)=C/CC/C(C)=C/COP(=O)(O)OP(=O)(O)O [MANT-O-GPP, (2E,6E)-8-O-(N-methyl-2-aminobenzoyl)-3,7-dimethyl-2,6-octandien-1-pyrophosphate]",,MANT-O-GPP exhibits an increase in fluorescence upon chain elongation by hcis-PT
